Results: patent publication US20240309015A1, “Methods for the Treatment of Fibrotic Disease” (SHY Therapeutics, LLC, priority 2021, published 2024)

Assays:
Rho-A = assay: Ras GTP Binding Domain Inhibition Assay, Rho-A; conditions: at 20 μM; without SOS
Procedure, shortened: (§1)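 Assay steps: protein on Ni-coated plate overnight at 4° C, compound for 3 h at room temperature (20 μM single point or serial dilution for IC50), then 100 nM dye-labelled GTP for 45 min. Washed wells read by fluorescence; Sos was added in the last hour in some runs.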

KRas G12C mutant = assay: Ras GTP Binding Domain Inhibition Assay, KRas G12C mutant; conditions: at 20 μM; for KRas G12C mutant + SOS: % inh.: with SOS; for KRas G12C mutant: % inh.: without SOS
Procedure, shortened: as §1

KRas wild type = assay: Ras GTP Binding Domain Inhibition Assay, KRas wild type; conditions: at 20 μM; for KRas wild type + SOS: % inh.: with SOS; for KRas wild type: % inh.: without SOS
Procedure, shortened: as §1

IL-6 = assay: Mouse IL6 Quantification Assay (LPS-stimulated RAW 264.7); type: cell-based; parameters: dose or concentration left out as unconfirmed; conditions: RAW264.7, ELISA, read-out: IL-6: % inh.
TNFα = assay: Mouse TNF Alpha Quantification Assay (LPS-stimulated RAW 264.7); type: cell-based; parameters: dose or concentration left out as unconfirmed; conditions: RAW264.7, ELISA, read-out: TNFα: % inh.
Smad2/3 phosphorylation = assay: Phospho-Smad2/3 Inhibition Assay in PANC-1; type: cell-based; conditions: Homo sapiens; 10 μM compound, 3 h; TGF-b1 stimulated PANC-1; western blot; read-out: % inh of Smad2/3 phosphorylation in PANC-1
Description: Cell lines: Human tumor-derived pancreatic cancer cell line Panc-1 and mouse muscle myoblast C2C12 were purchased from American Type Culture Collection and grown in complete DMEM-High Glucose, supplemented with penicillin (100 U/mL), streptomycin (100 μg/mL), and 10% heat-inactivated FBS at 37° C. in a humidified incubator with 5% CO2.
Method: Cells were plated at 350000 cells/well density in a 12-well plate, allowed 3 hours to adhere to the plate, then starved in the appropriate medium in the presence of 0.5% FBS overnight. The small molecules to be tested were added to the cells in the final concentration of 10 μM in the presence of 0.3% DMSO for 3 hours incubation at 37° C. For IC50 value determination, serial dilutions of compounds were added to cells under the same conditions. Next, Panc-1 cells were stimulated with 10 ng/ml TGF-b1 for 1 hour, and C2C12 cells were stimulated with 10 ng/ml TGF-b1 for 20 minutes (recombinant human TGF-b1, R&D Systems). After stimulation cells were lysed with lysis buffer containing 1% Triton X-100, EDTA, and Halt™ Protease & Phosphatase Inhibitor Cocktail (Thermo Scientific). Protein concentration was assessed by BCA protein assay (Thermo Scientific). Phosphorylation level of Smad2/Smad3 was determined by western blot.
Western blot protocol: Equal amounts of protein (15-50 μg) were separated by SDS-PAGE and transferred to nitrocellulose membranes (Invitrogen by Thermo Fisher Scientific). The membrane was stained with Ponceau S Stain (Boston BioProducts) to verify uniform protein loading. Membranes were blocked with 10% milk and phosphorylation levels of Smad2/Smad3 were assessed by incubating overnight at 4° C. with the following antibodies: Phospho-Smad2 (Ser465/467) and Phosph-Smad3 (Ser423/425), both from Cell Signaling Technology. Then the membranes were incubated with HRP-conjugated secondary antibody (Jackson Immunoresearch, West Grove, PA). Bands were incubated in Amersham ECL Prime Western Blotting Detection Reagent (GE Healthcare) and visualized using the ChemiDoc MP imaging system (Bio-Rad).

KRas G12D mutant = assay: Ras GTP Binding Domain Inhibition Assay, KRas G12D mutant; conditions: at 20 μM; for KRas G12D mutant + SOS: % inh.: with SOS; for KRas G12D mutant: % inh.: without SOS
Procedure, shortened: as §1

Rho-A: % inh. (Rho-A) | KRas G12C mutant + SOS: % inh. (KRas G12C mutant) | KRas G12C mutant: % inh. (KRas G12C mutant) | KRas wild type + SOS: % inh. (KRas wild type) | KRas wild type: % inh. (KRas wild type) | KRas G12D mutant + SOS: % inh. (KRas G12D mutant; Table 7) | KRas G12D mutant + SOS: % inh. (KRas G12D mutant; Table 8) | KRas G12D mutant: % inh. (KRas G12D mutant; Table 7) | KRas G12D mutant: % inh. (KRas G12D mutant; Table 8) | SMILES | inhibition (IL-6) | inhibition (TNFα) | inhibition at 10 µM (Smad2/3 phosphorylation)
0 (0 = 0% inhibition) | D (D = 76-100% inhibition) | B (B = 26-45% inhibition) | D (D = 76-100% inhibition) | B (B = 26-45% inhibition) | C (C = 46-75% inhibition) | C (C = 46-75% inhibition) | A (A = 1-25% inhibition) | A (A = 1-25% inhibition) | COc1cccc(-c2sc3nc(-c4nccn4C)nc(N[C@@H]4CC[C@@H](OC)C4)c3c2-c2ccccc2)c1F (racemic) [Compound 41, 6-(2-Fluoro-3-methoxyphenyl)-N-((1R,3R)-3-methoxycyclopentyl)-2-(1-methyl-1H-imidazol-2-yl)-5-phenylthieno[2,3-d]pyrimidin-4-amine] | 76 to 100% | 76 to 100% | 76 to 100%
C (C = 46-75% inhibition) | D (D = 76-100% inhibition) | B (B = 26-45% inhibition) | D (D = 76-100% inhibition) | C (C = 46-75% inhibition) | C (C = 46-75% inhibition) | C (C = 46-75% inhibition) | C (C = 46-75% inhibition) | C (C = 46-75% inhibition) | COc1nccc(-c2sc3nc(-c4nccn4C)nc(N[C@H]4C[C@H](OC)C4)c3c2-c2ccccc2)c1F [Compound 45, 6-(3-Fluoro-2-methoxypyridin-4-yl)-N-((1r,3r)-3-methoxycyclobutyl)-2-(1-methyl-1H-imidazol-2-yl)-5-phenylthieno[2,3-d]pyrimidin-4-amine] | – | – | 76 to 100%
C (C = 46-75% inhibition) | D (D = 76-100% inhibition) | B (B = 26-45% inhibition) | D (D = 76-100% inhibition) | C (C = 46-75% inhibition) | C (C = 46-75% inhibition) | C (C = 46-75% inhibition) | C (C = 46-75% inhibition) | C (C = 46-75% inhibition) | COc1cc(-c2sc3nc(-c4nccn4C)nc(N[C@H]4C[C@H](OC)C4)c3c2-c2ccccc2)ccn1 [Compound 46, N-((1r,3r)-3-Methoxycyclobutyl)-6-(2-methoxypyridin-4-yl)-2-(1-methyl-1H-imidazol-2-yl)-5-phenylthieno[2,3-d]pyrimidin-4-amine] | – | – | 76 to 100%

Continued, compound first:

SMILES | Rho-A: % inh. (Rho-A) | KRas G12C mutant + SOS: % inh. (KRas G12C mutant) | KRas G12C mutant: % inh. (KRas G12C mutant) | KRas wild type + SOS: % inh. (KRas wild type) | KRas wild type: % inh. (KRas wild type) | KRas G12D mutant + SOS: % inh. (KRas G12D mutant; Table 7) | KRas G12D mutant + SOS: % inh. (KRas G12D mutant; Table 8) | KRas G12D mutant: % inh. (KRas G12D mutant; Table 7) | KRas G12D mutant: % inh. (KRas G12D mutant; Table 8) | inhibition (IL-6) | inhibition (TNFα) | inhibition at 10 µM (Smad2/3 phosphorylation)
COC1CCCN(c2nc(-c3nccn3C)nc3sc(-c4ccn(C(C)C)n4)c(C)c23)C1 (racemic) [Compound 14, rac-6-(1-Isopropyl-1H-pyrazol-3-yl)-4-(3-methoxypiperidin-1-yl)-5-methyl-2-(1-methyl-1H-imidazol-2-yl)thieno[2,3-d]pyrimidine] | B (B = 26-45% inhibition) | D (D = 76-100% inhibition) | B (B = 26-45% inhibition) | D (D = 76-100% inhibition) | 0 (0 = 0% inhibition) | – | – | – | – | 76 to 100% | 26 to 45% | 46 to 75%
Cc1c(-c2ccn(C(C)C)n2)sc2nc(-c3nccn3C)nc(NCC3COCCN3C)c12 (racemic) [Compound 24, rac-6-(1-Isopropyl-1H-pyrazol-3-yl)-5-methyl-2-(1-methyl-1H-imidazol-2-yl)-N-((4-methylmorpholin-3-yl)methyl)thieno[2,3-d]pyrimidin-4-amine] | C (C = 46-75% inhibition) | D (D = 76-100% inhibition) | C (C = 46-75% inhibition) | D (D = 76-100% inhibition) | B (B = 26-45% inhibition) | D (D = 76-100% inhibition) | D (D = 76-100% inhibition) | C (C = 46-75% inhibition) | C (C = 46-75% inhibition) | 76 to 100% | 1 to 25% | 0%
Cc1c(-c2ccn(C(C)C)n2)sc2nc(-c3nccn3C)nc(NCC3CN(C)CCO3)c12 (racemic) [Compound 25, rac-6-(1-Isopropyl-1H-pyrazol-3-yl)-5-methyl-2-(1-methyl-1H-imidazol-2-yl)-N-((4-methylmorpholin-2-yl)methyl)thieno[2,3-d]pyrimidin-4-amine] | D (D = 76-100% inhibition) | D (D = 76-100% inhibition) | D (D = 76-100% inhibition) | D (D = 76-100% inhibition) | D (D = 76-100% inhibition) | D (D = 76-100% inhibition) | D (D = 76-100% inhibition) | D (D = 76-100% inhibition) | D (D = 76-100% inhibition) | 76 to 100% | 46 to 75% | 0%
Cc1c(-c2ccn(C(C)C)n2)sc2nc(-c3nccn3C)nc(NCC3CCCO3)c12 (racemic) [Compound 26, rac-6-(1-Isopropyl-1H-pyrazol-3-yl)-5-methyl-2-(1-methyl-1H-imidazol-2-yl)-N-((tetrahydrofuran-2-yl)methyl)thieno[2,3-d]pyrimidin-4-amine] | D (D = 76-100% inhibition) | D (D = 76-100% inhibition) | D (D = 76-100% inhibition) | D (D = 76-100% inhibition) | D (D = 76-100% inhibition) | C (C = 46-75% inhibition) | C (C = 46-75% inhibition) | D (D = 76-100% inhibition) | D (D = 76-100% inhibition) | 76 to 100% | 0% | 0%
COCCn1ccc(-c2sc3nc(-c4nccn4C)nc(NC[C@H]4CC[C@H]4COC)c3c2C)n1 (racemic) [Compound 38, rac-6-(1-(2-Methoxyethyl)-1H-pyrazol-3-yl)-N-(((1S,2R)-2-(methoxymethyl)cyclobutyl)methyl)-5-methyl-2-(1-methyl-1H-imidazol-2-yl)thieno[2,3-d]pyrimidin-4-amine] | B (B = 26-45% inhibition) | D (D = 76-100% inhibition) | C (C = 46-75% inhibition) | D (D = 76-100% inhibition) | C (C = 46-75% inhibition) | D (D = 76-100% inhibition) | D (D = 76-100% inhibition) | B (B = 26-45% inhibition) | B (B = 26-45% inhibition) | 76 to 100% | 76 to 100% | 46 to 75%
COc1cccc(Nc2nc(-c3nccn3C)nc3sc(-c4ccn(C(C)C)n4)c(C)c23)c1 [Compound 17, 6-(1-Isopropyl-1H-pyrazol-3-yl)-N-(3-methoxyphenyl)-5-methyl-2-(1-methyl-1H-imidazol-2-yl)thieno[2,3-d]pyrimidin-4-amine] | C (C = 46-75% inhibition) | D (D = 76-100% inhibition) | C (C = 46-75% inhibition) | C (C = 46-75% inhibition) | B (B = 26-45% inhibition) | C (C = 46-75% inhibition) | C (C = 46-75% inhibition) | C (C = 46-75% inhibition) | C (C = 46-75% inhibition) | 76 to 100% | 76 to 100% | 46 to 75%
